Where “and” joins values, the source holds several entries; their conditions need not be identical. Equal values may be shown once. Read-outs that look alike come from different tables or passages of the source.
Key:
[1] = biological target: T1, GluN1/GluN2A (Rattus norvegicus, UniProt P35439+Q00959); assay: TEVC on Xenopus oocytes, GluN1/GluN2A diheteromers; assay type: cell-based; settings: 1 µM trans-OptoNAM-3 (dark); listed as trans-OptoNAM-3
T1 construct: expressed in transfected cells; host or cells: Xenopus laevis oocytes (nuclear cDNA injection)
Text: (§1) NMDARs exist as multiple subtypes in the brain that are formed by the combination of two GluN1 and either two identical (diheteromers) or different (triheteromers) GluN2 (GluN2A-D) subunits.[1] We assessed the selectivity of trans-OptoNAM-3 (dark PSS) for the other NMDAR subtypes.
(§2) We used cDNA coding for rat GluN1–1a (named GluN1 herein) (GenBank: U08261.1), rat GluN2A (GenBank: D13211.1), mouse GluN2B (GenBank: D10651.2), rat GluA1 flop (GenBank: M36418.2), and rat Myc-GluA2(Q)-flip (GenBank: AF164344.1) cloned into pcDNA3-based expression plasmids. GluK2 (GenBank: Z11548.1) corresponds to the fully RNA-edited version.[80] The GluN2B-ΔNTD construct is from ref[45] and GluN2B–N615K is from ref[81]. Single mutants GluN2B-Q110G and GluN1-L135H were from ref[19]. The GluA2 cDNA contains a Myc tag ([…]) fused between the signal peptide and the N-terminus sequences, and the GluA2 subunit is […] for its Q/R/N site (GluA2(Q)) to allow permeation of homomeric GluA2 receptors.[2] cDNAs coding for rat GluN2C (GenBank: M91563.1) and GluN2D subunits (GenBank: L31611.1) were in prK5 plasmids.
(§3) Expression of recombinant NMDA receptors was obtained by oocyte nuclear coinjection of 37 nL of a mixture of cDNAs (at 30 ng/μL) coding for GluN1–1a and various GluN2 subunits (ratio 1:1). The protocol in ref[43] was followed for the expression of GluN1/GluN2A/GluN2B triheteromers. […]

[2] = system: GluN1/GluN2A/GluN2B triheteromers; assay: TEVC on Xenopus oocytes, GluN1/GluN2A/GluN2B triheteromers; assay type: cell-based, rat GluN1, rat GluN2A, mouse GluN2B; settings: 1 µM trans-OptoNAM-3 (dark)
Text: as §1, §2, §3

[3] = biological target: T2, GluK2 kainate receptors (Rattus norvegicus, UniProt P42260, I567V/Q621R/Y571C); assay: TEVC on Xenopus oocytes, GluK2 kainate receptors; assay type: cell-based; design: Inhibition, individual values: scale not given here; settings: for Inhibition, individual values: GluK2, single cells
T2 construct: expressed in transfected cells; host or cells: Xenopus laevis oocytes (mRNA injection)
Text: as §2
The expression of recombinant GluA1, GluA2(Q), and GluK2 receptors was obtained by oocyte injection of 50 nL of mRNAs (at 1 μg/μL). mRNAs were generated using the T7 (GluA1 and GluA2) and T3 (GluK2) mMessage mMachine transcription kits (Invitrogen) after cDNA linearization with the SacII restriction enzyme. The injected oocytes were stored in the same conditions as for NMDARs and used 72–96 h postinjection.
TEVC recordings were performed 1–3 days following injection. TEVC recordings were performed using an Oocyte Clamp amplifier OC-725 (Warner Instruments) and computer-controlled via a 1440A Digidata (Molecular Devices). Currents were sampled at 100 Hz and low-pass-filtered at 20 Hz using an 8-pole Bessel filter (900 Series, Frequency Devices Inc.). Data were collected with Clampfit 10.3. During the recording, the cells were continuously perfused with external recording Ringer solution at pH 7.3 (in mM: 100 NaCl, 0.3 BaCl2, 5 HEPES, and 2.5 KCl, pH adjustment to 7.3 by the addition of NaOH). The NMDA currents were induced by simultaneous application of L-glutamate and glycine (agonist solution) at saturating concentration (100 μM each), and DTPA (10 μM) to prevent receptor inhibition by ambient zinc (∼20 nM).[83] A control solution (100 μM glycine and 10 μM DTPA in Ringer pH 7.3) was used for washout of drug and test solutions. AMPA and kainate receptor currents were induced in the same conditions as NMDA currents (100 μM glutamate and glycine + 10 μM DTPA). Oocytes expressing GluK2 kainate receptors were treated with concanavalin A ([…], equivalent to 1.1 mg/mL) during 10 min before recording to decrease receptor desensitization. Unless notified, recordings were performed at a holding potential of −60 mV. All experiments were performed at room temperature.
Oocytes expressing GluK2 receptors were treated with concanavalin A ([…]) before recording to decrease
receptor desensitization.

T2 sequence (P42260 32-908 I567V/Y571C/Q621R): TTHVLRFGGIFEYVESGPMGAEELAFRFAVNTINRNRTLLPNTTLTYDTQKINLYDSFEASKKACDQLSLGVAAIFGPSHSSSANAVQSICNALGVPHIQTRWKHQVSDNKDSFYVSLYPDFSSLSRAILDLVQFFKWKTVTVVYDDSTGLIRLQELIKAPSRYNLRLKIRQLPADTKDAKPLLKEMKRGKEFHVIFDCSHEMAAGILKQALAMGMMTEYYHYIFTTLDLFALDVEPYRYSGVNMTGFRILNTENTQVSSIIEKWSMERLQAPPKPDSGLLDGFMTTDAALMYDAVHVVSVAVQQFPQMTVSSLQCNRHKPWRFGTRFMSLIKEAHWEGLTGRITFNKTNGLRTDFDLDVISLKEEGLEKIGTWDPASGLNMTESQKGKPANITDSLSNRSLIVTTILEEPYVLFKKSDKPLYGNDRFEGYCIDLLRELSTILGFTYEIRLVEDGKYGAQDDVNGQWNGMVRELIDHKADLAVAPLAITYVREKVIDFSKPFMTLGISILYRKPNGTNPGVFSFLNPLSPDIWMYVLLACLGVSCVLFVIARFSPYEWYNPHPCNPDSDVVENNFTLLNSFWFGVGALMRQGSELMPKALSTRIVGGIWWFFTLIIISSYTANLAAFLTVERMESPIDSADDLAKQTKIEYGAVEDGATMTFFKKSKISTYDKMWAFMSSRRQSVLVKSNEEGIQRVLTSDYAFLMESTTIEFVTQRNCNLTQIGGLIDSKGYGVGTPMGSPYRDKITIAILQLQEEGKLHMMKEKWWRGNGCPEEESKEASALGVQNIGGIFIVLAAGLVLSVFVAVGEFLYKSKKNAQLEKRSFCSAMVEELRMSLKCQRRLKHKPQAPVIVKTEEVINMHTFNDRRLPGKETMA
T1 sequence (Q00959 23-1464, other chains not shown): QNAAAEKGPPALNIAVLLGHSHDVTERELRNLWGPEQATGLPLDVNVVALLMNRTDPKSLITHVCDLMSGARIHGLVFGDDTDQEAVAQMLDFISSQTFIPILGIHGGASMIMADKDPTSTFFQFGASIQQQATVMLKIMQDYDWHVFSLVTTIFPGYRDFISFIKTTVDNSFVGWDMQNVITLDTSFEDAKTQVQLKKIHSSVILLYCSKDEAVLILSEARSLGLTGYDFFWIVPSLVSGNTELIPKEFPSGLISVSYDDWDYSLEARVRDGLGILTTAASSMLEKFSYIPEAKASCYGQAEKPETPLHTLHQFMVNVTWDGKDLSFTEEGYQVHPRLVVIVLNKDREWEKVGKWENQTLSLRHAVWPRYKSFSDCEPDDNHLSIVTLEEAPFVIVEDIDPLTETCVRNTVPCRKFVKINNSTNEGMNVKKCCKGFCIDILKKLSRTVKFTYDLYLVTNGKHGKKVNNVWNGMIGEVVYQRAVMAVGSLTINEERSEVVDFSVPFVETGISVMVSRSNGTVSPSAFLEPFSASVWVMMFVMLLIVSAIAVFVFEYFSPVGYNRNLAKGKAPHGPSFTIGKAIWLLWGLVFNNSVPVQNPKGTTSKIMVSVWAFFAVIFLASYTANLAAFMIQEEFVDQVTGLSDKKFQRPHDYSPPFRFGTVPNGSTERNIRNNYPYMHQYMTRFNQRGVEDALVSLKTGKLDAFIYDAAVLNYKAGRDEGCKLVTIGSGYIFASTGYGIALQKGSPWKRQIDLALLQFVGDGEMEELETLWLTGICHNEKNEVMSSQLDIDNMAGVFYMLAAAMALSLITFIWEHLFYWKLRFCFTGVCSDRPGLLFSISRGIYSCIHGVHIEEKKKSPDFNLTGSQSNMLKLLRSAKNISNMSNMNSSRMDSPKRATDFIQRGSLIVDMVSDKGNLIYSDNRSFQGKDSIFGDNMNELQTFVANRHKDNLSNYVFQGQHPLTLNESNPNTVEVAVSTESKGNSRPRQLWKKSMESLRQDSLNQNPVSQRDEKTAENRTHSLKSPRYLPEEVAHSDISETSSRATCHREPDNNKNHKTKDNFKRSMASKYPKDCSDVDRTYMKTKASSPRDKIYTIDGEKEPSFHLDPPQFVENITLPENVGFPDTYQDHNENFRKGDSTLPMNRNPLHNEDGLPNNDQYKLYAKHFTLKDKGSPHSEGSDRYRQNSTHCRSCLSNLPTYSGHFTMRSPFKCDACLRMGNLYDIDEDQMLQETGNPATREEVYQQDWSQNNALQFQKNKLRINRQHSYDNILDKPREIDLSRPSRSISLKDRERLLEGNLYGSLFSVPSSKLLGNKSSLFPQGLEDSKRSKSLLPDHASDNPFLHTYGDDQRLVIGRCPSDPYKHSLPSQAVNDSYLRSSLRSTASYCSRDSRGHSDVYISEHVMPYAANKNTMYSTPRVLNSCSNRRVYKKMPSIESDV

inhibition of GluN1/GluN2A [1]: 2.7% ± 0.5% | inhibition at 10 µM ([3]; 10 µM OptoNAM-3 365 nm PSS, construct GluK2, read-out: Inhibition (%)): -1.6% | inhibition at 10 µM ([3]; 10 µM OptoNAM-3 dark PSS (trans), construct GluK2, read-out: Inhibition (%)): 3.1% | inhibition of GluK2 currents ([3]; 10 µM, dark PSS, concanavalin A treated): no effect | inhibition at 10 µM ([3]; 10 µM, dark PSS, concanavalin A treated, read-out: inhibition of GluK2 currents): 3.1 ± 3.4%
Structure (SMILES): c1ccc(/N=N/c2ccc(CCNc3ccncc3)cc2)cc1 [OptoNAM-3, (E)-N-(4-(Phenyldiazenyl)phenethyl)pyridin-4-amine]
inhibition of GluN1/GluN2A/GluN2B triheteromers [2]: 11.404% | inhibition of GluN1/GluN2A/GluN2B triheteromers ([2]; listed as trans-OptoNAM-3): 11.4% ± 0.9% | Inhibition, individual values ([3]; 10 µM OptoNAM-3 dark PSS (trans) as headed, second block): -0.01064 and 0.02708 and -0.08821 and 0.02098 and -0.02821 | Inhibition, individual values ([3]; 10 µM OptoNAM-3 dark PSS (trans), first block): 0.1443 and -0.06723 and 0.004392 and 0.02857 and 0.0441
